Test results published in patent publication US20170209483A1, “ANTIBIOTIC ACTIVITY OF IRON SEQUESTERING POLYMERS” (UNIVERSITY OF KANSAS, priority 2014, published 2017).
Structures can show the parent of a compound that is named as a salt.

How the values were obtained:
P. aeruginosa = settings: concentrations used reflect reported MICs; cited from earlier work
[1] = system: Pseudomonas aeruginosa strain PA01 wild type; assay: PAI-DHBA as an adjuvant to conventional antibiotics on bacterial growth; assay type: cell-based; settings: Ciprofloxacin 1 μg/mL added at 5 h, read at 9 h, versus control
[2] = system: Pseudomonas aeruginosa strain PA01 wild type; assay: Comparison to traditional iron chelating agents, bacterial counts; assay type: cell-based; settings: EDTA or HBED 500 μM, PAI-DHBA 20 mg, added at inoculation; 5, 6 and 12 h
[3] = in vivo; cited from earlier work

| Compound | Reported MIC (P. aeruginosa) | Bacterial count (CFU/mL) versus control (no chelator) [2] | also measured |
| --- | --- | --- | --- |
| O=C(O)c1cn(C2CC2)c2cc(N3CCNCC3)c(F)cc2c1=O [Ciprofloxacin, Ciprofloxacin hydrochloride] | 1 µg/mL | – | Overall reduction in CFU/mL [1]: approximately 4 log units |
| sodium ethylene diamine tetraacetate [EDTA] | – | small, transient difference | – |
| O=C(O)CN(CCN(CC(=O)O)Cc1ccccc1O)Cc1ccccc1O [HBED, N,N-bis (2-hydroxybenzyl) ethylenediamine-N,N-diacetic acid] | – | small, transient difference | – |
| Gentamicin sulfate | 24 µg/mL | – | – |
| CC(=O)N(O)CCCCCNC(=O)CCC(=O)N(O)CCCCCNC(=O)CCC(=O)N(O)CCCCCN [DFO, deferoxamine] | – | – | Plasma half-life [3]: ~5.5 min |
